Converted amounts (≈) assume the structure as drawn. The source made the active and inactive calls. The calls are words filed in the database; no cut-off is given here. Where a SMILES comes first, the peptide text is derived from it. Bridges are numbered along the chain shown (N, C = ends).
Experiments:
[1] = system: Staphylococcus aureus; test: Antibacterial activity against methicillin-resistant Staphylococcus aureus SAP0017 measured after overnight incubation by microtitre plate based spectrophotometric method; assay type: functional
[2] = system: Staphylococcus aureus; test: Antibacterial activity against methicillin-resistant Staphylococcus aureus USA300 LAC measured after overnight incubation by microtitre plate based spectrophotometric method; assay type: functional
[3] = system: Pseudomonas aeruginosa; test: Antibacterial activity against Pseudomonas aeruginosa PA14 measured after overnight incubation by microtitre plate based spectrophotometric method; assay type: functional
[4] = system: Pseudomonas aeruginosa; test: Antibacterial activity against Pseudomonas aeruginosa PAO1 measured after overnight incubation by microtitre plate based spectrophotometric method; assay type: functional
[5] = system: Escherichia coli; test: Antibacterial activity against Escherichia coli ATTC 489 measured after overnight incubation by microtitre plate based spectrophotometric method; assay type: functional
[6] = system: Acinetobacter baumannii; test: Antibacterial activity against Acinetobacter baumannii 5015 measured after overnight incubation by microtitre plate based spectrophotometric method; assay type: functional
[7] = system: Acinetobacter baumannii; test: Antibacterial activity against Acinetobacter baumannii 17918 measured after overnight incubation by microtitre plate based spectrophotometric method; assay type: functional
[8] = system: Klebsiella pneumoniae; test: Antibacterial activity against Klebsiella pneumoniae ATTC 13883 measured after overnight incubation by microtitre plate based spectrophotometric method; assay type: functional
[9] = system: Staphylococcus aureus; test: Antibiofilm activity against methicillin-resistant Staphylococcus aureus SAP0017 incubated for 24 hrs under shaking condition by turbidometric method; assay type: functional
[10] = system: Staphylococcus aureus; test: Antibiofilm activity against methicillin-resistant Staphylococcus aureus USA300 LAC incubated for 24 hrs under shaking condition by turbidometric method; assay type: functional
[11] = system: Pseudomonas aeruginosa; test: Antibiofilm activity against Pseudomonas aeruginosa PA14 incubated for 24 hrs under shaking condition by turbidometric method; assay type: functional
[12] = system: Pseudomonas aeruginosa; test: Antibiofilm activity against Pseudomonas aeruginosa PAO1 incubated for 24 hrs under shaking condition by turbidometric method; assay type: functional
[13] = system: Escherichia coli; test: Antibiofilm activity against Escherichia coli ATTC 489 incubated for 24 hrs under shaking condition by turbidometric method; assay type: functional
[14] = system: Acinetobacter baumannii; test: Antibiofilm activity against Acinetobacter baumannii 5015 incubated for 24 hrs under shaking condition by turbidometric method; assay type: functional
[15] = system: Acinetobacter baumannii; test: Antibiofilm activity against Acinetobacter baumannii 17918 incubated for 24 hrs under shaking condition by turbidometric method; assay type: functional
[16] = system: Klebsiella pneumoniae; test: Antibiofilm activity against Klebsiella pneumoniae ATTC 13883 incubated for 24 hrs under shaking condition by turbidometric method; assay type: functional
[17] = system: Staphylococcus aureus; test: Antibiofilm activity against methicillin-resistant Staphylococcus aureus SAP0017 assessed as reduction in biofilm biomass incubated overnight by crystal violet staining assay; assay type: functional
[18] = system: Staphylococcus aureus; test: Antibiofilm activity against methicillin-resistant Staphylococcus aureus USA300 LAC assessed as reduction in biofilm biomass measured after overnight incubation by crystal violet staining assay; assay type: functional
[19] = system: Pseudomonas aeruginosa; test: Antibiofilm activity against 24 hrs preformed Pseudomonas aeruginosa PA14 biofilm assessed as reduction in biofilm viability at 7.2 to 30.3 uM by TTC assay relative to control; assay type: functional; details: dose microM 7.2-30.3
[20] = system: Pseudomonas aeruginosa; test: Antibiofilm activity against 24 hrs preformed Pseudomonas aeruginosa PAO1 biofilm assessed as reduction in biofilm viability at 7.2 to 30.3 uM by TTC assay relative to control; assay type: functional; details: dose microM 7.2-30.3
[21] = system: Escherichia coli; test: Antibiofilm activity against 24 hrs preformed Escherichia coli ATTC 489 biofilm assessed as reduction in biofilm viability at 7.2 to 30.3 uM by TTC assay relative to control; assay type: functional; details: dose microM 7.2-30.3
[22] = system: Acinetobacter baumannii; test: Antibiofilm activity against 24 hrs preformed Acinetobacter baumannii 5015 biofilm assessed as reduction in biofilm viability at 7.2 to 30.3 uM by TTC assay relative to control; assay type: functional; details: dose microM 7.2-30.3
[23] = system: Acinetobacter baumannii; test: Antibiofilm activity against 24 hrs preformed Acinetobacter baumannii 17918 biofilm assessed as reduction in biofilm viability at 7.2 to 30.3 uM by TTC assay relative to control; assay type: functional; details: dose microM 7.2-30.3
[24] = system: Klebsiella pneumoniae; test: Antibiofilm activity against 24 hrs preformed Klebsiella pneumoniae ATTC 13883 biofilm assessed as reduction in biofilm viability at 7.2 to 30.3 uM by TTC assay relative to control; assay type: functional; details: dose microM 7.2-30.3
[25] = molecular target: Trypsin (Homo sapiens, UniProt P07477+P07478+P35030); test: Stability of the compound in pH 8.2 ammonium bicarbonate buffer assessed as trypsin (unknown origin)-mediated drug degradation at 20 ug/ml measured after 120 mins by RP-HPLC analysis; assay type: ADME, protein assay; details: trypsin in ammonium bicarbonate buffer, pH 8.2, at 20 µg/mL, read-out: Drug degradation
[26] = Aggregation property of the compound in water at 1 mg/ml by turbidimetric method; assay type: physicochemical; details: buffer
[27] = Aggregation property of the compound in saline at 1 mg/ml by turbidimetric method; assay type: physicochemical; details: buffer
[28] = Aggregation property of the compound in 5% dextrose at 1 mg/ml by turbidimetric method; assay type: physicochemical
[29] = Aggregation property of the compound in RPMI medium with 1% FBS at 1 mg/ml by turbidimetric method; assay type: physicochemical
[30] = Aggregation property of the compound in sodium citrate solution at 10 mM by turbidimetric method; assay type: physicochemical; details: 10000 µM
[31] = Aggregation property of the compound in sodium phosphate solution at 10 mM by turbidimetric method; assay type: physicochemical; details: 10000 µM
[32] = Aggregation property of the compound in sodium nitrate solution at 10 mM by turbidimetric method; assay type: physicochemical; details: 10000 µM
[33] = Aggregation of the compound in human PBMC assessed as amorphous morphology at 50 ug/ml measured after 4 hrs by microscopic analysis; assay type: ADME, tissue-based; details: dose 50 µg/ml
[34] = Cytotoxicity against human PBMC assessed as reduction in cell viability at 100 ug/ml measured after 24 hrs by LDH assay; assay type: tissue-based; details: dose 100 µg/ml
[35] = system: PBMC; test: Immunomodulatory activity in human PBMC assessed as increase in MCP1 production at 25 ug/ml measured after overnight incubation by ELISA; assay type: functional, tissue-based; details: dose 25.0 µg/ml
[36] = system: PBMC; test: Immunomodulatory activity in human PBMC assessed as change in TNFalpha production at 25 ug/ml measured after overnight incubation by ELISA; assay type: functional, tissue-based; details: dose 25.0 µg/ml
[37] = system: PBMC; test: Immunomodulatory activity in human PBMC assessed as increase in IL-1RA production at 25 ug/ml measured after overnight incubation by ELISA; assay type: functional, tissue-based; details: dose 25.0 µg/ml
[38] = system: PBMC; test: Immunomodulatory activity in human PBMC assessed as reduction in LPS-induced TNFalpha production at 25 ug/ml measured after overnight incubation by ELISA; assay type: functional, tissue-based; details: dose 25.0 µg/ml
[39] = Immunomodulatory activity in human PBMC assessed as increase in LPS-induced MCP1 production at 25 ug/ml measured after overnight incubation by ELISA; assay type: functional; details: dose 25 µg/ml
[40] = Immunomodulatory activity in human PBMC assessed as increase in LPS-induced IL10 production at 25 ug/ml measured after overnight incubation by ELISA; assay type: functional; details: dose 25 µg/ml
[41] = Immunomodulatory activity in human PBMC assessed as increase in LPS-induced IL1RA production at 25 ug/ml measured after overnight incubation by ELISA; assay type: functional; details: dose 25 µg/ml
[42] = Toxicity in CD1 mouse assessed as redness under the skin at 10 mg/kg, sc measured after 16 hrs; assay type: organism-based; details: in vivo
[43] = system: Staphylococcus aureus; test: Antibacterial activity against Staphylococcus aureus USA300 LAC infected in CD1 mouse assessed as reduction in dermonecrosis at 7.5 mg/kg, sc administered at infection site measured after 3 days by caliper method relative to control; assay type: functional; design: scale not given: the % may be the effect or the level left; details: time 3 day
[44] = system: Staphylococcus aureus; test: Antibacterial activity against Staphylococcus aureus USA300 LAC infected in CD1 mouse assessed as dermonecrosis area at 7.5 mg/kg, sc administered at infection site measured after 3 days by caliper method (Rvb > 75 mm2); assay type: functional; details: time 3 day
[45] = system: Staphylococcus aureus; test: Antibacterial activity against Staphylococcus aureus USA300 LAC infected in CD1 mouse assessed as reduction in bacterial load at 7.5 mg/kg, sc administered at infection site measured after 3 days by colony counting method relative to control; assay type: functional; details: time 3 day

CC[C@H](C)[C@@H]1NC(=O)[C@H](CCCNC(=N)N)NC(=O)[C@H](C(C)C)NC(=O)[C@H](C)NC(=O)[C@H](C(C)C)NC(=O)[C@H]([C@@H](C)CC)NC(=O)[C@H](CC(C)C)NC(=O)[C@H](CCCNC(=N)N)NC(=O)[C@H](C(C)C)NC(=O)CC[C@@H](C(N)=O)NC(=O)[C@H](CCCNC(=N)N)NC(=O)[C@H](CCCNC(=N)N)NC(=O)[C@H](Cc2c[nH]c3ccccc23)NC1=O (VRLIVAVRIWRRE-NH2; lactam N-13)
MIC [1]: 15.1 µM (≈ 24.9 µg/mL)
MIC [2]: 15.1 µM (≈ 24.9 µg/mL)
MIC [3]: 30.3 µM (≈ 49.9 µg/mL)
MIC [4]: 30.3 µM (≈ 49.9 µg/mL)
MIC [5]: 30.3 µM (≈ 49.9 µg/mL)
MIC [6]: 15.1 µM (≈ 24.9 µg/mL)
MIC [7]: 15.1 µM (≈ 24.9 µg/mL)
MIC [8]: 15.1 µM (≈ 24.9 µg/mL)
MBEC [9]: 9.7 µM
MBEC [10]: 7.2 µM
MBEC [11]: 38.8 µM
MBEC [12]: 38.8 µM
MBEC [13]: 38.8 µM
MBEC [14]: 15.1 µM
MBEC [15]: 15.1 µM
MBEC [16]: 9.7 µM
MBIC [17]: 7.2 µM
MBIC [18]: 7.2 µM
Activity [19]: 70%
Activity [20]: 70%
Activity [21]: 70%
Activity [22]: 70%
Activity [23]: 70%
Activity [24]: 70%
metabolised at 2 h, 20 ug/ml [25]: 30%
Activity [26]: Not Active
Activity [27]: Not Active
Activity [28]: Not Active
Activity [29]: Active
Activity [30]: Not Active
Activity [31]: Not Active
Activity [32]: Not Active
Activity [33]: Not Active
Activity [34]: Toxic
Activity [35]: Active
Activity [36]: inactive
Activity [37]: Active
Activity [38]: Active
Activity [39]: 35%
Activity [40]: 30%
Activity [41]: 35%
Activity [42]: Toxic
Activity [43]: 90%
Activity [44]: 5 mm2
fold change (FC) [45]: 1000

Reference: ChEMBL document CHEMBL4725351, “Cyclic Derivative of Host-Defense Peptide IDR-1018 Improves Proteolytic Stability, Suppresses Inflammation, and Enhances In Vivo Activity” (J Med Chem, 2020)
